Data published in patent US20210255193A1, “LYSINE REACTIVE PROBES AND USES THEREOF” (The Scripps Research Institute, priority 2017, published 2021).

Assays:
Assay in all cases: competitive isoTOP-ABPP
Assay type in all cases: binding
CUL2 Cullin-2 = target: T1, CUL2 Cullin-2 (Homo sapiens, UniProt Q13617)
T1 construct: isoTOP-ABPP experiments performed in cell lysates (in vitro); endogenous in cells; host or cells: soluble proteome of human cancer cell lines (MDA-MB-231, Ramos, Jurkat)
Method in brief: (§1)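 Lysine engagement is reported as R, the MS1 peak-area ratio of heavy-tagged DMSO to light-tagged compound samples. Final fragment concentrations were 50 μM for activated esters and 100 μM for guanidinylating agents; STP-alkyne probe 0.1 mM, 1 h.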

[1] = target: T2, KIAA1967 DBIRD complex subunit KIAA1967 (Homo sapiens, UniProt Q8N163)
T2 construct: isoTOP-ABPP experiments performed in cell lysates (in vitro); endogenous in cells; host or cells: soluble proteome of human cancer cell lines (MDA-MB-231; Ramos and Jurkat also prepared)
Method in brief: as §1

[2] = target: T3, GSTT2B Glutathione S-transferase theta-2B (Homo sapiens, UniProt P0CG30)
T3 construct: isoTOP-ABPP experiments performed in cell lysates (in vitro); endogenous in cells; host or cells: MDA-MB-231 soluble lysate
T3 sequence (P0CG30 1-244): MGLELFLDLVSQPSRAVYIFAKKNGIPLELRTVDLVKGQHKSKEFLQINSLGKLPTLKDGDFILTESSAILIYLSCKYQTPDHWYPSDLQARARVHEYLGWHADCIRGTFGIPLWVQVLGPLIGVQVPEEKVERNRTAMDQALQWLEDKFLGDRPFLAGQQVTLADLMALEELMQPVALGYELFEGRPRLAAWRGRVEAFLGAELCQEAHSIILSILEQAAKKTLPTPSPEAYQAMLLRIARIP
Method in brief: as §1

[3] = target: T4, ENOPH1 Enolase-phosphatase E1 (Homo sapiens, UniProt Q9UHY7)
T4 construct: endogenous in cells; host or cells: MDA-MB-231 (soluble fraction of lysate)
Method in brief: as §1

[4] = target: T5, ERAP1 Endoplasmic reticulum aminopeptidase 1 (Homo sapiens, UniProt Q9NZ08)
T5 construct: endogenous in cells; host or cells: MDA-MB-231 lysate
Method in brief: as §1

[5] = target: T6, MTOR Serine/threonine-protein kinase mTOR (Homo sapiens, UniProt P42345)
T6 construct: isoTOP-ABPP experiments performed in cell lysates (in vitro); endogenous in cells; host or cells: soluble proteome of human cancer cell lines (MDA-MB-231; Ramos and Jurkat also prepared)
Method in brief: as §1

T5 sequence (Q9NZ08 whole entry): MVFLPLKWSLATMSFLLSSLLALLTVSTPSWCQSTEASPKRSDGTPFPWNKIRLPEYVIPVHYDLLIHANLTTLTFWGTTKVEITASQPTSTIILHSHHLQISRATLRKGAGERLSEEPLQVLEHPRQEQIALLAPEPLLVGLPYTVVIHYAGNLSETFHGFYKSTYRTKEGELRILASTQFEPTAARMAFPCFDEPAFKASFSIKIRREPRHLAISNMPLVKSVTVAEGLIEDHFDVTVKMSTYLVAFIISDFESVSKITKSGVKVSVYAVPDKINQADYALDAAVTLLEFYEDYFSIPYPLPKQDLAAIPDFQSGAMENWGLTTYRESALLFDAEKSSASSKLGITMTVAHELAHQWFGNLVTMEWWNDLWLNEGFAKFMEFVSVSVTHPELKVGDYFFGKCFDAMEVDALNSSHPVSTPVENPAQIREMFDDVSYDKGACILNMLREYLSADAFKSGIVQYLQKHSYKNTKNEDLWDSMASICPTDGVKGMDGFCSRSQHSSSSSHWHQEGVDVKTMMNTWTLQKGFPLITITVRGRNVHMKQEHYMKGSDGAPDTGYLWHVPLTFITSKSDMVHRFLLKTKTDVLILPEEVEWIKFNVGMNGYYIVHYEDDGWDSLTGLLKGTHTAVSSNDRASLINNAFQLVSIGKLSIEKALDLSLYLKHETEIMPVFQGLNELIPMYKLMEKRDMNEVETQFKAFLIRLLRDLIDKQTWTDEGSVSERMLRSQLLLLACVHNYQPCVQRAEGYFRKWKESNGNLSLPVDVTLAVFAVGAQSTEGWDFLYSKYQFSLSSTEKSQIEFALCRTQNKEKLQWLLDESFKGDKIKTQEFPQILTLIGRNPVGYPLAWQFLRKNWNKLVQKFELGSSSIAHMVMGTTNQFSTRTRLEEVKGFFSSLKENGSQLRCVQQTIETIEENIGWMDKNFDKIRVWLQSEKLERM
T4 sequence (Q9UHY7 whole entry): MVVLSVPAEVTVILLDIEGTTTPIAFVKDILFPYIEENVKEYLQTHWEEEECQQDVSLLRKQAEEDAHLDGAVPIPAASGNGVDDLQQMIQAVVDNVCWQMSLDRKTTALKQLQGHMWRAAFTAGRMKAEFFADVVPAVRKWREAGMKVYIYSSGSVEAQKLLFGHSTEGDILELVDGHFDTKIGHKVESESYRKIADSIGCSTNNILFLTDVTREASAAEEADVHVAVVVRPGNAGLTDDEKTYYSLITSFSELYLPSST
T2 sequence (Q8N163 whole entry, one chain of several): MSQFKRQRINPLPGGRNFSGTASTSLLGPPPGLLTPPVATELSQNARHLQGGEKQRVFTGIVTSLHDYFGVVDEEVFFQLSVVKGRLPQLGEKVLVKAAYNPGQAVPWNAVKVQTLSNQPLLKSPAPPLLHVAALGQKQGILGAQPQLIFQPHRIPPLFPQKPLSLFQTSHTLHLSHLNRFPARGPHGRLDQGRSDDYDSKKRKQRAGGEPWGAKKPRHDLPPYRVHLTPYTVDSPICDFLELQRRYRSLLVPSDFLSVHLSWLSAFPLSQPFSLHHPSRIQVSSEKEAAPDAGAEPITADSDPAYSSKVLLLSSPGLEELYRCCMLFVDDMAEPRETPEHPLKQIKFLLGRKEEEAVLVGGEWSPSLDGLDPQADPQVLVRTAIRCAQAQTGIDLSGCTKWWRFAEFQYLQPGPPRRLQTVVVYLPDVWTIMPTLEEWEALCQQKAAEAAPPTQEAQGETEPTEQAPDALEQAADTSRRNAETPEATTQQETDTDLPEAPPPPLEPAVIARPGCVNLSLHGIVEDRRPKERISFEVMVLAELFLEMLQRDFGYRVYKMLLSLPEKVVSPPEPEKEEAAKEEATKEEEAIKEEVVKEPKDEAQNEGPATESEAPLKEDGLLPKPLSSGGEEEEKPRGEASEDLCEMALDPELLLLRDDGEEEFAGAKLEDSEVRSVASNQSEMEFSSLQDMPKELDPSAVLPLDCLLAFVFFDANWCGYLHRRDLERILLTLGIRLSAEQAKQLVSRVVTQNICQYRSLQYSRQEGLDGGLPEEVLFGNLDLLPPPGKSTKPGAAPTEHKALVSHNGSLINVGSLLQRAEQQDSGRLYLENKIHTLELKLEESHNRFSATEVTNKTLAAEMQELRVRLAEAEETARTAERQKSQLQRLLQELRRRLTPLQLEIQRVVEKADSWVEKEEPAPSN
T1 sequence (Q13617 whole entry): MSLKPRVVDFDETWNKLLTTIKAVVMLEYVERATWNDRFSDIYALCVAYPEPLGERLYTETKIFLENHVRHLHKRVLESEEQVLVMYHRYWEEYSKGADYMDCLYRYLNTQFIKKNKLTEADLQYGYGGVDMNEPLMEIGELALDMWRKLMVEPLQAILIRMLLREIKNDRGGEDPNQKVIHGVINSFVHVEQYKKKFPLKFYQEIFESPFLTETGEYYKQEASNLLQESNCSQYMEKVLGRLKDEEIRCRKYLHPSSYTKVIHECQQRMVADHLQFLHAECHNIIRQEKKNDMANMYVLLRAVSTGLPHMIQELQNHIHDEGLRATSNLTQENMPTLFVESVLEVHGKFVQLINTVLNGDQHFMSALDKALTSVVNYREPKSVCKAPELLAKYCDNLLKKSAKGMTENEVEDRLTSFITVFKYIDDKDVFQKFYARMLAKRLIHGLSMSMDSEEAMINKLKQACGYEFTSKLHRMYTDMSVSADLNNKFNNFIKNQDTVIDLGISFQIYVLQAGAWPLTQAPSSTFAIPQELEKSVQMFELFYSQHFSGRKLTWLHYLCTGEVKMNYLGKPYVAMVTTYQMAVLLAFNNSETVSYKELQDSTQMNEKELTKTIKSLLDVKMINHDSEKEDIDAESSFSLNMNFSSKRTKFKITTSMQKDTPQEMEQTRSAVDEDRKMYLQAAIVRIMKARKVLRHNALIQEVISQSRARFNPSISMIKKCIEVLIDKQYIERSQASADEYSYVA

Row | Compound | isoTOP-ABPP ratio, lysine Q13617_K489 (CUL2 Cullin-2; 50 uM_231_sol_in vitro) | isoTOP-ABPP ratio, lysine Q8N163_K97 ([1]; 50 uM_231_sol_in vitro) | isoTOP-ABPP ratio, lysine Q8N163_K112 ([1]; 50 uM_231_sol_in vitro) | isoTOP-ABPP ratio, lysine P0CG30_K53 ([2]; 50 uM_231_sol_in vitro) | isoTOP-ABPP ratio, lysine Q9UHY7_K111 ([3]; 50 uM_231_sol_in vitro) | isoTOP-ABPP ratio, lysine Q9NZ08_K685 ([4]; 50 uM_231_sol_in vitro) | isoTOP-ABPP ratio, lysine P42345_K2066 ([5]; 50 uM_231_sol_in vitro) | isoTOP-ABPP ratio, lysine Q13617_K489 (CUL2 Cullin-2; 100 uM_231_sol_in vitro) | isoTOP-ABPP ratio, lysine Q8N163_K97 ([1]; 100 uM_231_sol_in vitro) | isoTOP-ABPP ratio, lysine Q8N163_K112 ([1]; 100 uM_231_sol_in vitro) | isoTOP-ABPP ratio, lysine P0CG30_K53 ([2]; 100 uM_231_sol_in vitro) | isoTOP-ABPP ratio, lysine Q9UHY7_K111 ([3]; 100 uM_231_sol_in vitro) | isoTOP-ABPP ratio, lysine Q9NZ08_K685 ([4]; 100 uM_231_sol_in vitro) | isoTOP-ABPP ratio, lysine P42345_K2066 ([5]; 100 uM_231_sol_in vitro)
1 | O=C(ON1C(=O)CCC1=O)c1cc(C(F)(F)F)cc(C(F)(F)F)c1 [fragment 46, 3,5-Bis(trifluoromethyl)benzoic acid NHS ester] | 1.0 | 0.9 | 1.1 | 1.8 | 1.1 | 2.1 | 1.5 | – | – | – | – | – | – | –
2 | O=C(Oc1c(F)c(F)c(C(F)(F)F)c(F)c1F)c1cc(C(F)(F)F)cc(C(F)(F)F)c1 [fragment 47, 2,3,5,6-Tetrafluoro-4-(trifluoromethyl)phenyl 3,5-bis(trifluoromethyl)benzoate] | 0.8 | 0.9 | 1.5 | 0.6 | 7.8 | 1.3 | 1.1 | – | – | – | – | – | – | –
3 | O=C(Oc1c(F)c(F)cc(F)c1F)c1cc(C(F)(F)F)cc(C(F)(F)F)c1 [fragment 48, 2,3,5,6-Tetrafluorophenyl 3,5-bis(trifluoromethyl)benzoate] | 0.8 | 0.6 | 1.0 | 0.9 | 0.9 | 1.5 | 1.0 | – | – | – | – | – | – | –
4 | COC(=O)NC(=NC(=O)OCC1c2ccccc2-c2ccccc21)n1cccn1 [fragment 49, N-Methoxycarbonyl-N′-9-fluorenylmethoxycarbonyl-pyrazole-1-carboxamidine] | – | – | – | – | – | – | – | 1.1 | 9.4 | 20.0 | 3.1 | 20.0 | 1.6 | 1.0
5 | CC(C)(C)OC(=O)N=C(NC(=O)OC(C)(C)C)n1cccn1 [fragment 50, reference compound] | – | – | – | – | – | – | – | 1.0 | 3.9 | 4.7 | 1.4 | 15.1 | 20.0 | 1.4
6 | NC(=O)c1cc(C(F)(F)F)cc(C(F)(F)F)c1 [fragment 51, reference compound] | 1.1 | 0.8 | 0.8 | 0.7 | 0.9 | 0.9 | 0.8 | – | – | – | – | – | – | –
